Read-outs that look alike come from different tables or passages of the source.
Tests used:
PANC-1 = test: Antiproliferative activity, SRB assay, PANC-1; format: cell-based, human
Experimental: (§1) Antiproliferative activity was evaluated in various human cancer cell lines (MCF-7, PANC-1, and Caco-2) as well as a normal cell line (human dermal fibroblasts). All cell lines were obtained from the American Type Culture Collection (ATCC, Manassas, VA, USA). MCF-7, PANC-1, and Caco-2 cells were cultured in high glucose Dulbecco’s modified Eagle medium (DMEM; Eurobio Scientific, Les Ulis, France). Fibroblasts were cultured in Iscove’s modified Dulbecco’s medium (IMDM; Eurobio Scientific, Les Ulis, France). All media were supplemented with 10% fetal bovine serum, 1% L-glutamine, and 1% penicillin/streptomycin. The cell lines were maintained at 37 °C in a 5% CO2 atmosphere with 95% humidity. For the cytotoxicity experiments, cells were cultured in 96-well plates at density of 6 × 10^3 cells per well to ensure exponential growth throughout the experimental period and to ensure a linear relationship between absorbance and cell number when analyzed by the sulforhodamine B (SRB) assay. […] One hundred microliters of 10 mM Tris base solution was then added to each well, and the absorbance was recorded on a microplate reader (BioTek Instruments, Winooski, VT, USA) at 570 nm. Results were expressed as % cell viability compared to the control (untreated cells). […]

[1] = Pilot pharmacokinetic study after oral administration; format: in vivo; conditions: male, Balb/c, mouse, mice, oral gavage, 6 mg/kg TQ, plasma
Experimental: Thirty male Balb/c mice (8–10 weeks old) were housed in plastic cages in an air-conditioned room with free access to food and water and were fasted overnight prior to the experiment. On the day of the experiment, animals were divided into two groups and each group was administered a single dose of 6 mg/kg TQ either as suspension in ultrapure water or in the form of TQ NPs (F2-NC) via oral gavage. At 1, 2, 4, 6, and 24 h post-administration, three animals from each group were randomly selected and euthanized by diethyl ether, and blood (~1 mL) was collected from the jugular vein into heparinized plastic tubes. Blood samples were left to sit for 45 min at room temperature then centrifuged at 5500 rpm for 30 min at room temperature. Approximately 0.5 mL of plasma was collected into microtubes, and plasma samples were stored at −80 °C until further analysis. The animal protocol for this work was approved by the Animal Care and Use Committee of Al-Zaytoonah University of Jordan (decision no. 1/5/2019–2020). All work was conducted in accordance with the Helsinki guidelines for animal research and all applicable Jordanian governmental rules and guidelines.
The system consisted of a Shimadzu LCMS-8030 quadrupole mass spectrometer (Kyoto, Japan) equipped with an electrospray ionization (ESI) source, and a Shimadzu Prominence 30A Ultra-Fast Liquid Chromatography system composed of a system controller, degasser, binary pump and auto-sampler. Samples were eluted on a C8 column (5 μm, 50 × 2.1 mm) coupled with a guard column (5 μm, 10 × 2.1 mm) at 20 °C. The isocratic mobile phase consisted of acetonitrile (ACN) and 0.2% formic acid (50:50, v/v) at a flow rate of 0.2 mL min^−1 and an injection volume of 20 μL. TQ samples were ionized by the ESI source in negative ion mode ([…] spray voltage). The dwell time was set to 50 ms and the probe temperature was 400 °C. Quantification was performed using multiple reaction monitoring (MRM) of the transitions at m/z 164.0→134.1.
TQ was dissolved in ACN to make a stock solution at 1 mg mL^−1. TQ working standard solutions were prepared by serial dilutions of the stock solution in the mobile phase. Calibration curve samples were prepared by spiking the appropriate TQ working standard solutions into blank plasma obtained from untreated mice to achieve concentrations from 2 to 1000 ng mL^−1.
To 100 μL of plasma (spiked with calibration curve samples or plasma extracted from treated mice), ethyl acetate (1 mL) was added and vortex mixed for 30 s. […] Samples were then injected into the LC-MS/MS system to quantify the plasma concentration of TQ at each time point. […] Plasma t1/2 was determined by fitting the elimination phase of the plots to the first-order model.

MCF-7 = test: Antiproliferative activity, SRB assay, MCF-7; format: cell-based, human
Experimental: as §1

human dermal fibroblasts = test: Antiproliferative activity, SRB assay, normal cell line; format: cell-based; conditions: Fibroblast, 72 h
Experimental: as §1

Caco-2 = test: Antiproliferative activity, SRB assay, Caco-2; format: cell-based, human
Experimental: as §1

[2] = parameters: method as in earlier work; conditions: cirsiliol from a formulation similar to F2-NC, cited from earlier work

IC50 (PANC-1; Homo sapiens, PANC-1, 72 h, SRB assay) [µM] | AUC(0-inf) [1] [ng·h/mL] | Cmax [1] [ng/mL] | Tmax [1] [h] | half-life ([1]; elimination phase first-order fit) [h] | IC50 (MCF-7; Homo sapiens, MCF7, MCF-7, 72 h, SRB assay) [µM] | IC50 (Caco-2; Homo sapiens, Caco-2, 72 h, SRB assay) [µM] | Structure (SMILES) | SI (selectivity index) (PANC-1; IC50 in fibroblasts divided by IC50 in PANC-1) | SI (selectivity index) (MCF-7; IC50 in fibroblasts divided by IC50 in MCF-7) | IC50 (human dermal fibroblasts) [µM] | SI (selectivity index) (Caco-2; IC50 in fibroblasts divided by IC50 in Caco-2) | cumulative release ([2]; after 96 h) | cumulative release ([2]; within the first 48 h)
8.8 ± 2.2 | 4670 ± 508 | 388 ± 41.5 | 4 | 5 | 20.5 ± 3.7 | 30.4 ± 0.5 | CC1=CC(=O)C(C(C)C)=CC1=O [TQ, 2-isopropyl-5-methylbenzo-1,4-quinone] | 6.7 | 2.9 | 58.9 ± 10.3 | 1.9 |  | 
 |  |  |  |  |  |  | COc1cc2oc(-c3ccc(O)c(O)c3)cc(=O)c2c(O)c1OC [cirsiliol] |  |  |  |  | ~ 40% | ~ 20%

Reference: publication PMC7560238, “Development of a Thymoquinone Polymeric Anticancer Nanomedicine through Optimization of Polymer Molecular Weight and Nanoparticle Architecture” (Pharmaceutics, 2020)
